Measurements as given in patent US6806293B1, “Use of pheromone compounds having MAP kinase modulating activity” (Darley Pharmaceuticals LTD, priority 2001, dated 2004).

How the values were obtained:
MAP kinase [1] = assay: Screening method for pheromone compounds having MAP kinase modulating activity in Rat1 cells (Example 1); assay type: cell-based, rat; conditions: observed on screening in accordance with the described methods
Description: In a preferred screening method, as set forth in Example 1 herein, pheromone compounds with MAP kinase modulating activity are identified using Rat1 cells grown in cell culture dishes. Samples of the pheromone compound are added to respective cell culture dishes containing the Rat1 cells and incubated. A control group is established by treating a separate group of cell culture dishes containing Rat1 cells with the same solutions absent the pheromone compound. After incubation, the Rat1 cells are stimulated with epidermal growth factor to stimulate MAP kinase activation in the Rat1 cells. Upon completion of the incubation period, the Rat1 cells in each of the culture dishes are separately processed to obtain the corresponding cell extract containing proteins indicative of active kinase. The proteins are then separated using known electrophoresis techniques and prepared as a blot for the detection and measurement of active MAP kinase. The resulting blot is analyzed using densitometric techniques to measure the corresponding activity of the tested pheromone compound.
Rat1 cells were grown in 6 cm cell culture dishes in a tissue culture incubator at 37° C. in an atmosphere containing 5% carbon dioxide. The cells were serum-starved for 16 hours. […] A control group was established by adding to the remaining cell culture dishes the same solution absent the pheromone compound. After the 15 minute period, the Rat1 cells were stimulated with epidermal growth factor (EGF) (50 ng/ml) for about 15 minutes for one group and 30 minutes for a second group.
The Rat1 cells were then treated to remove the corresponding incubation medium and then the cells were rinsed twice each with 5 ml of cold phosphate buffered saline (PBS) and once with 5 ml of cold homogenizing buffer (Buffer H) containing 50 mM of β-glycerophosphate, (pH 7.3), 1.5 mM of ethylenebis(oxyethylenenitrilo)tetraacetic acid (EGTA), 1 mM of ethylenediaminetetraacetic acid (EDTA), 1 mM of dithiothreitol (DTT), 0.1 mM sodium orthovanadate, 1 mM benzamidine, 10 μg/ml of aprotinin, 10 μg/ml of leupeptin, and 2 μg/ml of pepstatin (2 μg/ml)+1% Triton-X-100.
The cells were harvested and lysed with 350 μl of cold Buffer H. Alternatively, the cells may be harvested and lysed with radioimmunoprotein assay buffer (RIPA buffer). Each extract was then centrifuged at 15,000×g for 15 minutes at 4° C. The resulting supernatants contained the protein extracts to be examined and were transferred to fresh, pre-cooled test tubes and kept on ice.
The proteins were then separated by sodium dodecyl sulfate-polyacrylamide gel electrophoresis (SDS-PAGE) and transferred, by western blotting, onto a nitrocellulose membrane.
The blot produced above was blocked with 2% bovine serum albumin (BSA) in Tris-buffered saline/Tween-20 (TBST) for 1 hour. The blot was then incubated with a monoclonal anti-active MAP kinase antibody obtained from Sigma, and diluted according to the manufacturer recommendations. The blot was incubated overnight at 4° C. Alternatively, the blot may also be incubated for about 30 minutes at 37° C., or from one to two hours at room temperature.
The treated blot was placed in a flat container and washed at least 3 times for 15 minutes each with TBST buffer at room temperature. The blot was then incubated with alkaline phosphatase-conjugated goat anti-mouse IgG obtained from Jackson Laboratories, diluted according to the manufacturer recommendations in TBST buffer for 45 minutes at room temperature. The blot was then subjected to a second washing, repeated 3 times, for 10 minutes each with TBST. An alkaline phosphatase (AP) detection technique was utilized to detect and measure the presence of active MAP kinase. Enhanced MAP kinase activity as compared to control is evidence that the compound is a MAP kinase activator. Lowered MAP kinase activity as compared to control is evidence that the compound is a MAP kinase inhibitor. […]

MAP kinase [2] = assay: MAP kinase activation in Rat1 cells compared to EGF and TPA (Example 3, western blot, densitometry); assay type: cell-based, rat; conditions: 15 minutes; for Activity (% of EGF-activation), Conc. 1 / Activity (% of TPA-activation), Conc. 1: compound 1 × 10^-4 M; for Activity (% of EGF-activation), Conc. 1 / Activity (% of EGF-activation), Conc. 2: relative to EGF 50 ng/ml; for Activity (% of TPA-activation), Conc. 1 / Activity (% of TPA-activation), Conc. 2: relative to TPA 100 nM; for Activity (% of EGF-activation), Conc. 2 / Activity (% of TPA-activation), Conc. 2: compound 1 × 10^-5 M
Description: Rat1 cells were grown in 6 cm cell culture dishes in a tissue culture incubator at 37° C. in an atmosphere containing 5% carbon dioxide. The Rat1 cells were serum-starved for 16 hours. Three groups of the Rat1 cells were then treated for 15 minutes with either epidermal growth factor (EGF) (50 ng/ml), 12-O-tetradecanoylphorbol-13-acetate (TPA) (100nM), or with one of the pheromone compounds at one of two concentrations identified in Table 2 below. EGF and TPA are compounds which are known to activate MAP kinase and therefore serve as a basis of comparing the relative activity of the pheromone compounds. The cells were then washed with phosphate buffered saline (PBS) and lysed with radioimmunoprotein assay (RIPA) buffer. The proteins were then separated by sodium dodecyl sulfate-polyacrylamide gel electrophoresis (SDS-PAGE), transferred onto a nitrocellulose membrane and probed with anti-MAPK antibodies to produce a blot. The MAP kinase activity for the EGF-treated cells, the TPA-treated cells and the pheromone compound-treated cells, was analyzed and calculated using densitometric analysis. The results shown in Table 2 are presented as percent of EGF-stimulated active MAP kinase levels or TPA-stimulated active MAP kinase levels, respectively.

Compound | mitogen-activating protein kinase modulation activity (activator or inhibitor) (MAP kinase [1]) | Activity (% of EGF-activation), Conc. 1 (MAP kinase [2]) | Activity (% of TPA-activation), Conc. 1 (MAP kinase [2]) | Activity (% of EGF-activation), Conc. 2 (MAP kinase [2]) | Activity (% of TPA-activation), Conc. 2 (MAP kinase [2])
CCCCCC(C)=O [2-Heptanone] | activators | 5% | 14% | 7% | 50%
C=CC(C)(C)O [2-methyl-3-butene-2-ol] | activators | 5% | 35% | – | –
CCC(C)CCCC/C=C\CCCCCCC=O (stereo not drawn) [14-methyl-Cis-8-Hexadecenal] | activators | 10% | 75% | 3% | 15%
CCCCCCCCCC/C=C\CCCCC(C)C [Cis-2-methyl-7-Octadecene] | activators | 8% | 60% | 8% | 45%
CCCCCCCC/C=C\CCCOC(C)=O [Cis-4-Tridecen-1-yl-acetate] | activators | 3% | 7% | 5% | 30%
CCCC/C=C\CCCCCCOC(C)=O [Cis-7-Dodecenyl-acetate] | activators | 7% | 20% | 8% | 17%
CCCCCC/C=C\CCCCCC=O [Cis-7-Tetradecenal] | activators | 7% | 20% | 5% | 10%
CCCCCC/C=C\CCCCCCO [Cis-7-Tetradecenol] | activators | 9% | 30% | 9% | 25%
CCCCCC/C=C\CCCCCCOC(C)=O [Cis-7-Tetradecenyl-acetate] | activators | 8% | 21% | 10% | 80%
CCCCC/C=C\CCCCCCO [Cis-7-Tridecenol] | activators | 12% | 80% | 9% | 60%
CCCCCCCC/C=C\CCCCCCCCCCC [Cis-9-Heneicosene] | activators | – | – | 3% | 22%
CCCCC/C=C\CCCCCCCCO [Cis-9-Pentadecenol] | activators | 14% | 95% | 6% | 30%
CCCC/C=C\CCCCCCCCO [Cis-9-Tetradecenol] | activators | 15% | 105% | 8% | 35%
CCCC/C=C\CCCCCCCCOC=O [Cis-9-Tetradecenyl-formate] | activators | 12% | 90% | 12% | 55%
CCCC/C=C\CCCCCCCCC/C=C/C=O [Trans-2,Cis-13-Octadecadienal] | activators | 4% | 30% | 8% | 40%
CC/C=C\C/C=C\CCC/C=C/CCO [Trans-3,Cis-8,Cis-11-Tetradecatrienol] | activators | 6% | 10% | 5% | 50%
CCCC/C=C/CCCCOC(C)=O [Trans-5-decenyl-acetate] | activators | 1% | – | 4% | 18%
C/C=C/CCCCCCCCCO [Trans-10-Dodecenol] | activators | 2% | 10% | 10% | 60%
CCCCC/C=C\CCCC(=O)CCCCCCCCCC [cis-6-heneicosene-11-one] | activators | – | – | – | –
Cis-9-Undecenyl-acetate | activators | 18% | 115% | 3% | 10%
